Here are results for one molecule from paper PMC8801607, “New Chitosan Polymer Scaffold Schiff Bases as Potential Cytotoxic Activity: Synthesis, Molecular Docking, and Physiochemical Characterization” (Frontiers in Chemistry, 2022).

As a reminder, the GI50 is the concentration giving 50% growth inhibition. A high value points to lower sensitivity of the cells.

The test system of this assay is MCF-7 cancer cell line. As to the kind of experiment: cells. On the procedure: MCF-7 breast cell line was employed in this study. The MCF-7 cell line was pre-incubated on a micro titer plate in this technique. Each test’s results are expressed as a percentage of the treated cells’ growth relative to the untreated control cells. […] 0.1 ml of the cell suspension (containing 5 × 10^6 cells/100 µL)and 0.1 ml of the test solution (6.25–100 µg in 1% DMSO such that the final concentration of DMSO in media was less than 1%) were added to the […] and incubated at 37°C for 72 h in a 5 percent CO2 incubator. The control wells included 1 percent DMSO and cell suspension, while the blank contained simply cell suspension. After 72 h, 20 µL of MTT were added and left in the CO2 incubator for 2 h before adding 100 µL of propanol. To protect the plate from light, it was wrapped in aluminum foil. The […] were then shaken for 10–25 min in a rotary shaker. The […] were processed on an ELISA reader for absorbance at 562 nm after 10–20 min.

With `COc1cccc2c1C(=O)c1c(O)c3c(c(O)c1C2=O)C[C@@](O)(C(=O)CO)C[C@@H]3O[C@H]1C[C@H](N)[C@H](O)[C@H](C)O1` [Doxorubicin], growth (Homo sapiens, MCF7) was halved (GI50) at 40 nM. Moreover, for the setting “MCF-7 cell line, MTT assay, mean ± SD of three separate experiments”, the “TGI (total growth of inhibition)” value was 250 ± 230 nM.
